Results as given in US20210275503A1, “TARGETING HOMOLOGOUS RECOMBINATION: A NEW SYTHETIC LETHAL THERAPEUTIC PARADIGM” (Cyteir Therapeutics, Inc., priority 2020, published 2021).
“Also recorded” adds a separate entry of the source.

Columns and labels:
[1] = Phase 1/2 monotherapy: safety and tolerability; type: in vivo; settings: 23 subjects
Excerpt: Dose escalation studies comprised of subjects with B-cell non-Hodgkin's lymphoma, chronic lymphocytic leukemia, multiple myeloma, breast cancer, head and neck cancer, soft tissue sarcoma, and ovarian cancer. Backfill studies comprised of subjects with diffuse large b-cell lymphoma (DLBCL), B-cell malignancies, pancreatic cancer, small-cell lung cancer, and HPV+HNSCC. Dosage for the Phase 1/2 monotherapy study is seen in FIG. 4.

[2] = Compound 67A pharmacokinetics in human subjects; type: in vivo; settings: for Cmax / Tmax / AUC(0-t): in vivo, human subjects
Protocol: Compound 67A pharmacokinetics were analyzed in human subjects (Table 1, FIGS. 2A-2B)

[3] = test system: advanced hematologic and solid tumors; test: Phase 1/2 monotherapy: clinical efficacy (Lugano, RECIST v1.1); type: in vivo, human; settings: for time on treatment: treatment ongoing
Protocol: Compound 67A was analyzed in hematological and solid tumors. Dose escalation studies comprised of subjects with B-cell non-Hodgkin's lymphoma, chronic lymphocytic leukemia, multiple myeloma, breast cancer, head and neck cancer, soft tissue sarcoma, and ovarian cancer. Backfill studies comprised of subjects with diffuse large b-cell lymphoma (DLBCL), B-cell malignancies, pancreatic cancer, small-cell lung cancer, and HPV+HNSCC. Dosage for the Phase 1/2 monotherapy study is seen in FIG. 4.
Subjects with advanced hematologic and solid tumors were treated with continuous 28-day cycles of increasing doses of Compound 67A with an accelerated titration and 3+3 trial design. As of Dec. […] Six subjects (26.1%) experienced a Compound 67A-related adverse event with only Grade 1/2 nausea (n=3, 13%) and constipation (n=2, 8.7%) occurring in >1 subject. There were no reported Compound 67A-related myelosuppression, serious adverse events, study discontinuation, or deaths.
Ten subjects were response evaluable prior to the data cut off.

[4] = Food effect pharmacokinetics, 90 mg QD, cycle 1 day 1; type: in vivo, human; settings: for Cmax / AUC(0-t) / Tmax: human, in vivo, oral, 90 mg, 90 mg QD, cycle 1 day 1; for Cmax / AUC(0-t): Mean ± SD; for AUC(0-t): read-out: AUC0-24; for Tmax: median (min, max)
Protocol: The food effect was evaluated with a 90 mg QD dosage during cycle 1 at day 1 (Table 2; FIG. 3).

[5] = subject with follicular lymphoma, 45 mg BID
[6] = subject with myxofibrosarcoma, 45 mg BID
[7] = subject with pancreatic cancer, 45 mg BID

For `CC(C)OC(=O)Nc1ccc(-c2cnc([C@H]3CC[C@H](NC(=O)OC(C)C)CC3)s2)c(S(=O)(=O)NC(C)(C)C)c1` [Compound 67A], the “Compound 67A-related myelosuppression, serious adverse events, study discontinuation, or deaths” value [1] was “no reported”, the dose-limiting toxicity ([1]; 6 cohorts (15, 20, 30, 45 mg BID; 90, 130 mg QD), 28-day cycles) was “No subjects experienced a dose-limiting toxicity” and the “Grade 1/2 constipation (related adverse event)” value ([1]; n=2) was 8.7%. The “Grade 1/2 nausea (related adverse event)” value ([1]; n=3) was 13%, the “subjects with a Compound 67A-related adverse event” value ([1]; six subjects) was 26.1% and the Cmax ([2]; 15 mg BID) was 338 ng/mL. For the same compound, the Tmax ([2]; 15 mg BID) was 2 h, the AUC(0-t) ([2]; 15 mg BID, AUC0-12) was 2630 ng·h/mL and the Cmax ([2]; 20 mg BID) was 670 ng/mL. It also gave a Tmax ([2]; 20 mg BID) of 2 h, an AUC(0-t) ([2]; 20 mg BID, AUC0-12) of 5940 ng·h/mL and a Cmax ([2]; 30 mg BID) of 1210 ng/mL. For the same compound, the Tmax ([2]; 30 mg BID) was 2 h, the AUC(0-t) ([2]; 30 mg BID, AUC0-12) was 10200 ng·h/mL and the AUC(0-t) ([2]; 45 mg BID, AUC0-12, mean ± SD, n = 2) was 13500 ± 8270 ng·h/mL. It also gave a Cmax ([2]; 45 mg BID, mean ± SD) of 1430 ± 362 ng/mL, a Tmax ([2]; 45 mg BID, median (min, max)) of 1.5 h and an AUC(0-t) ([2]; 90 mg QD, AUC0-8, mean ± SD) of 11500 ± 5570 ng·h/mL. The Cmax ([2]; 90 mg QD, mean ± SD) was 1740 ± 930 ng/mL, the Tmax ([2]; 90 mg QD, median (min, max)) was 2.5 h and the AUC(0-t) ([2]; 130 mg QD, AUC0-8, mean ± SD) was 12800 ± 3980 ng·h/mL. For the same compound, the Cmax ([2]; 130 mg QD, mean ± SD) was 1800 ± 438 ng/mL, the Tmax ([2]; 130 mg QD, median (min, max)) was 2 h and the AUC(0-t) ([2]; 200 mg QD, AUC0-8, mean ± SD) was 20600 ± 12200 ng·h/mL. For the same compound, the Cmax ([2]; 200 mg QD, mean ± SD) was 3460 ± 2470 ng/mL, the Tmax ([2]; 200 mg QD, median (min, max)) was 3.75 h and the “systemic exposure versus dose” value ([2]; preliminary pharmacokinetic analyses, Phase 1/2 subjects) was “dose proportional systemic exposure”. For the same compound, the “metabolic activity in non-target lesions” value ([3]; subject with DLBCL) was “significant reduction in metabolic activity in non-target lesions”, the target lesions ([3]; subject with DLBCL) was “near complete resolution of target lesions” and the response ([3]; subject with DLBCL, 45 mg BID) was “partial responses; also recorded: confirmed partial response”. It also gave a tumor change ([3]; subject with DLBCL, 45 mg BID, Lugano) of −74%, a time on treatment ([3]; subject with DLBCL, 45 mg BID) of no less than 126 days and a decrease ([3]; subject with follicular lymphoma (45 mg BID), C3D1) of 42%. For the same compound, the decrease ([3]; subject with follicular lymphoma (45 mg BID), C5D1) was 47%, the response ([3]; subject with follicular lymphoma (45 mg BID, escalated to 130 mg QD at C5D1), end of the sixth month) was “unconfirmed partial response” and the response ([3]; subject with follicular lymphoma, 30 mg BID) was “stable disease with evidence of clinical benefit”. For the same compound, the decrease ([3]; subject with follicular lymphoma, 30 mg BID, C3D1) was 27%, the “duration of stable disease” value [3, 5] was no less than 99 days and the tumor change [3, 5] was −42%. For the same compound, the response ([3]; subject with follicular lymphoma, 45 mg BID, at data cut off) was “stable disease with tumor shrinkage”, the overall decrease ([3]; subject with follicular lymphoma, C7D1, after escalation to 130 mg QD at C5D1) was 67% and the response ([3]; subject with leiomyosarcoma) was “stable disease”. For the same compound, the “change by RECIST” value ([3]; subject with leiomyosarcoma, six months) was 0%, the decrease ([3]; subject with myxofibrosarcoma) was 30% and the response [3, 6] was “partial responses; also recorded: unconfirmed partial response”. The tumor change ([3]; subject with myxofibrosarcoma, 45 mg BID, RECIST v1.1) was −30%, the time on treatment [3, 6] was no less than 250 days and the response ([3]; subject with ovarian cancer) was “stable disease”. The “decrease by RECIST v1.1” value ([3]; subject with ovarian cancer, two months) was 29%, the “decrease by RECIST” value ([3]; subject with pancreatic cancer) was 19% and the “drop in CA19-9” value ([3]; subject with pancreatic cancer) was no less than 70%. The “duration of stable disease” value [3, 7] was 111 days, the response [3, 7] was “stable disease with tumor shrinkage; also recorded: stable disease with evidence of clinical benefit” and the tumor change [3, 7] was −19%. The “impact of food on drug exposure” value ([4]; 90 mg QD food-effect cohort) was “minimal impact of food on drug exposure”, the Cmax ([4]; Fasted Patients (n = 3)) was 574 ± 304 ng/mL and the AUC(0-t) ([4]; Fasted Patients (n = 3)) was 5950 ± 2900 ng·h/mL. It also gave a Tmax ([4]; Fasted Patients (n = 3)) of 4 h, a Cmax ([4]; Fed Patients (n = 3)) of 458 ± 129 ng/mL and an AUC(0-t) ([4]; Fed Patients (n = 3)) of 6430 ± 1840 ng·h/mL. For the same compound, the Tmax ([4]; Fed Patients (n = 3)) was 8 h.
